Test results: patent US4886915A, “Water soluble organic ammonium per halides” (priority 1988, dated 1989)

Key:
[1] = Titration for oxidizable bromine (Standard Methods for the Examination of Water and Waste Water, Method 408A); settings: for Tit. Ox. Br2: Table 1, aqueous solution prepared from 48% HBr; for Ox. Br2 of the sample used for vapor pressure: Table 9
[2] = Water solubility of perbromides; settings: for Solubility: in water, Tables 2 and 3
[3] = Perbromide closed-bottle shelf life stability at ambient temperature; settings: for Initial Ox. Br2: time zero
Method: (§1) In order to determine the shelf life stability of the perbromide solutions, a series of studies were conducted to determine the percent bromine lost over time. The following tables shown below list the perbromides studied and the percent oxidizable bromine lost over time. The perbromides studied were kept in closed bottles in ambient conditions (Table 7) and at 50° C.

[4] = Perbromide closed-bottle shelf life stability at 50° C.; settings: for Initial Ox. Br2: time zero
Method: as §1

[5] = Vapor pressure of aqueous organic ammonium perbromides (isoteniscope); settings: for Vp: @ 26° C., Table 9; for vapor pressure of bromine: 26° C., bromine water approx. 3.5% by weight, NaBr3 and perbromides roughly 40% Br2
[6] = Table 4, concentrated (74.1% hydrobromide, #17) and anhydrous (100%, #18-20)
[7] = Table 2, perbromide separated as bottom viscous liquid phase
[8] = ambient, time elapsed 24 months (#3 17, #11 16, #23 22 months)
[9] = ambient, time elapsed 24 months (#3 17, #11 16, #23 22 months), 1.0512e+06 min
[10] = 50° C., time elapsed 40 (months)

Ethylethanolammonium Perbromide [compound 6]
Tit. Ox. Br2 [1]: 37.7 % by Weight

Octylammonium Perbromide [compound 9]
Tit. Ox. Br2 [1]: 34.7 % by Weight

Diethanolammonium Perbromide [Compound #20]
water solubility (in words) [2]: very soluble in water | Tit. Ox. Br [1, 6]: 45.3 % by Weight

Propylammonium Perbromide [compound 22]
Relative Change in % Br2 ([3]; 17520 h): 2.3% | Relative Change in % Br2 ([4]; 29200 h): 2.7%

Ethanolammonium Perbromide [Compound #17]
Tit. Ox. Br [1, 6]: 47.3 % by Weight

Diethylethanolammonium [compound 14, reference compound]
water solubility (in words) [2]: only sparingly soluble in water | Solubility [2]: 0.1 g./100 g H2O | Tit. Ox. Br [1, 7]: 42.3 % by Weight

Dipropylammonium Perbromide [compound 10]
Tit. Ox. Br [1, 7]: 45.1 % by Weight

Ethanolammonium Perbromide [Compound #18]
Tit. Ox. Br [1, 6]: 51.8 % by Weight

1,6-Hexanediammonium [compound 16]
Tit. Ox. Br ([1]; Table 3, crystalline perbromide precipitated out of aqueous solution): 51.8 % by Weight

Dimethylethanolammonium Perbromide [Compound #7, reference compound]
Vp [5]: 30 mmHg

Hexylammonium Perbromide [compound 8]
Tit. Ox. Br2 [1]: 36.1 % by Weight

Dibutylammonium Perbromide [compound 11]
Change in % Br2 [3, 8]: 2.1% | Final Ox. Br2 [3, 8]: 41.1 % by Weight | Relative Change in % Br2 [3, 9]: 4.9% | Initial Ox. Br2 ([3]; ambient): 43.2 % by Weight | Solubility [2]: 1.0 g./100 g H2O | Vp [5]: 38 mmHg | Tit. Ox. Br [1, 7]: 40.9 % by Weight

Ethanolammonium Perbromide [Compound #21]
Relative Change in % Br2 ([3]; 17520 h): 2.0% | Relative Change in % Br2 ([4]; 29200 h): 3.1%

Tributylammonium Perbromide [compound 12, reference compound]
Vp [5]: 28 mmHg | Tit. Ox. Br [1, 7]: 36.0 % by Weight | Ox. Br2 of the sample used for vapor pressure [1]: 37.5 % by Weight

Methylethanolammonium Perbromide [compound 5]
Vp [5]: 28 mmHg | Tit. Ox. Br2 [1]: 39.3 % by Weight | Ox. Br2 of the sample used for vapor pressure [1]: 39.3 % by Weight

Propylammonium Perbromide [Compound #3]
Change in % Br2 [3, 8]: 0.3% | Final Ox. Br2 [3, 8]: 41.0 % by Weight | Relative Change in % Br2 [3, 9]: 0.7% | Initial Ox. Br2 ([3]; ambient): 41.3 % by Weight | Change in % Br2 [4, 10]: 2.0% | Final Ox. Br2 [4, 10]: 39.0 % by Weight | Relative Change in % Br2 ([4]; 50° C., time elapsed 40 (months), 1.752e+06 min): 4.9% | Initial Ox. Br2 ([4]; 50° C.): 41.0 % by Weight | Vp [5]: 36 mmHg | Tit. Ox. Br2 [1]: 39.3 % by Weight | Ox. Br2 of the sample used for vapor pressure [1]: 39.3 % by Weight

Diethanolammonium Perbromide [Compound #4]
Change in % Br2 [3, 8]: 2.0% | Final Ox. Br2 [3, 8]: 35.0 % by Weight | Initial Ox. Br2 ([3]; ambient): 37.0 % by Weight | Change in % Br2 [4, 10]: 7.0% | Final Ox. Br2 [4, 10]: 30.0 % by Weight | Initial Ox. Br2 ([4]; 50° C.): 37.0 % by Weight | Vp [5]: 49 mmHg

BrBr [compound 35, Pure Bromine]
vapor pressure of bromine [5]: approximately 220 mm Hg | Vp [5]: 223 mmHg | Ox. Br2 of the sample used for vapor pressure [1]: 100 % by Weight

Bromine in H2 O [compound 34]
vapor pressure of bromine [5]: 210 mm Hg | Vp [5]: 210 mmHg | Ox. Br2 of the sample used for vapor pressure [1]: 3.5 % by Weight

Ethanolammonium Perbromide [Compound #1]
Relative Change in % Br2 ([3]; 17520 h): 4.0% | Change in % Br2 [3, 8]: 1.6% | Final Ox. Br2 [3, 8]: 38.5 % by Weight | Initial Ox. Br2 ([3]; ambient): 40.1 % by Weight | Change in % Br2 [4, 10]: 1.8% | Final Ox. Br2 [4, 10]: 39.0 % by Weight | Initial Ox. Br2 ([4]; 50° C.): 40.8 % by Weight | Relative Change in % Br2 ([4]; 29200 h): 4.4%

Sodium (NaBr3) [compound 33]
vapor pressure of bromine [5]: 140 mm Hg | Vp [5]: 145 mmHg

Propylammonium Perbromide [Compound #19]
Tit. Ox. Br [1, 6]: 53.2 % by Weight
